Measured values from patent US9140688B2, “Sperm staining and sorting methods” (INGURAN, LLC, priority 2011, dated 2015).

Assays:
[1] = system: membrane compromised bovine sperm stained with Hoechst 33342; assay: Dead quenching: dead gate intensity divided by live gate intensity, flow cytometry of stained bovine sperm; type: cell-based; conditions: for Dead Intensity (dead gate intensity divided by live gate intensity): Ex 5
In short: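 Bovine sperm stained with Hoechst 33342 (48–64 μM effective) in pH 7.4 TALP at 34° C for 60 min, then mixed 1:1 with pH 5.60 TALP containing quenching dye and held ~30 min at room temperature. Read on a MoFlo SX sorter; value is dead gate intensity divided by live gate intensity as a percentage, lower meaning more quenching.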

[2] = system: X- and Y-chromosome bearing bovine sperm stained with Hoechst 33342; assay: Split quality: height of peak divided by height of valley (PV), flow cytometry of stained bovine sperm; type: cell-based; conditions: for Height of Peak/Height of Valley: Ex 5
[3] = solvent water; shorter-wavelength local maximum; cited from earlier work
[4] = dye 62.5 μM, Hoechst 12 μL/2 mL
[5] = dye 62.5 μM, Hoechst 14 μL/2 mL
[6] = dye 62.5 μM, Hoechst 16 μL/2 mL
[7] = Ex 6, dye 62.5 μM, resulting pH 6.70, Hoechst 48 μM

Structure (SMILES): COc1cc(S(=O)(=O)O)c(C)cc1N=Nc1c(O)ccc2cc(S(=O)(=O)O)ccc12 [Red 40, 6-hydroxy-5-[(2-methoxy-5-methyl-4-sulfophenyl)azo]-2-naphthalenesulfonic acid, reference compound]
- Dead Intensity (dead gate intensity divided by live gate intensity) ([1]; dye 25 μM, Average of Hoechst levels): 68%
- Dead Intensity (dead gate intensity divided by live gate intensity) ([1]; dye 25 μM, Hoechst 12 μL/2 mL): 68%
- Dead Intensity (dead gate intensity divided by live gate intensity) ([1]; dye 25 μM, Hoechst 14 μL/2 mL): 72%
- Dead Intensity (dead gate intensity divided by live gate intensity) ([1]; dye 25 μM, Hoechst 16 μL/2 mL): 65%
- Dead Intensity (dead gate intensity divided by live gate intensity) ([1]; dye 62.5 μM, Average of Hoechst levels): 52%
- Dead Intensity (dead gate intensity divided by live gate intensity) [1, 4]: 53%
- Dead Intensity (dead gate intensity divided by live gate intensity) [1, 5]: 53%
- Dead Intensity (dead gate intensity divided by live gate intensity) [1, 6]: 50%
- Dead Intensity (dead gate intensity divided by live gate intensity) ([1]; dye 125 μM, Average of Hoechst levels): 38%
- Dead Intensity (dead gate intensity divided by live gate intensity) ([1]; dye 125 μM, Hoechst 12 μL/2 mL): 37%
- Dead Intensity (dead gate intensity divided by live gate intensity) ([1]; dye 125 μM, Hoechst 14 μL/2 mL): 41%
- Dead Intensity (dead gate intensity divided by live gate intensity) ([1]; dye 125 μM, Hoechst 16 μL/2 mL): 35%
- Intensity (dead gate) [1, 7]: 53%
- Height of Peak/Height of Valley ([2]; dye 25 μM, Average of 12 and 14 μL series): 2.00
- Height of Peak/Height of Valley ([2]; dye 25 μM, Hoechst 12 μL/2 mL): 2.05
- Height of Peak/Height of Valley ([2]; dye 25 μM, Hoechst 14 μL/2 mL): 1.94
- Height of Peak/Height of Valley ([2]; dye 25 μM, Hoechst 16 μL/2 mL): 1.00
- Height of Peak/Height of Valley ([2]; dye 62.5 μM, Average of 12 and 14 μL series): 1.64
- Height of Peak/Height of Valley [2, 4]: 1.65
- Height of Peak/Height of Valley [2, 5]: 1.62
- Height of Peak/Height of Valley [2, 6]: 1.00
- Height of Peak/Height of Valley ([2]; dye 125 μM, Average of 12 and 14 μL series): 1.88
- Height of Peak/Height of Valley ([2]; dye 125 μM, Hoechst 12 μL/2 mL): 1.75
- Height of Peak/Height of Valley ([2]; dye 125 μM, Hoechst 14 μL/2 mL): 2.00
- Height of Peak/Height of Valley ([2]; dye 125 μM, Hoechst 16 μL/2 mL): 1.21
- PV [2, 7]: 1.00
- PV ([2]; Ex 8, Bull 1, Hoechst 60 μM, R40 20 μM alone): 1.62
- PV ([2]; Ex 8, Bull 2, Hoechst 44 μM, R40 20 μM alone): 1.54
- PV ([2]; Ex 9, Bull 3, Hoechst 60 μM, R40 50 μM, R3 0 μM): 1.44
- Expected Absorption Maxima [3]: 505 nm
